{
  "source": "patent EP2276483B1",
  "about": "“SOLID FORMS COMPRISING (+)-2-[1-(3-ETHOXY-4-METHOXYPHENYL)-2-METHYLSULFONYLETHYL]-4-ACETYLAMINOISOINDOLINE-1,3-DIONE, COMPOSITIONS THEREOF, AND USES THEREOF” (CELGENE CORPORATION, priority 2008, dated 2009)",
  "key": {"bovine PDE1": {"tested_on": "bovine PDE1", "assay": "PDE1 enzyme assay", "type": "biochemical"}, "cAMP": {"tested_on": "cAMP", "assay": "PGE2-induced cAMP elevation in human neutrophils", "type": "cell-based", "conditions": "Neutrophil", "experimental": "Prostaglandin E2 (PGE2) binds to prostanoid receptors on monocytes, T cells and other leukocytes and consequently elevates intracellular cAMP levels, resulting in inhibition of cellular responses. The combination of PGE2 and a PDE4 inhibitor synergistically elevates cAMP levels in these cell types, and the elevation of cAMP in PBMC caused by PDE4 inhibitors in the presence of PGE2 is proportional to the inhibitory activity of that PDE4 inhibitor. Intracellular cAMP was measured in human PBMC as follows. PBMC were isolated as described above and plated in 96-well plates at 1 x 10^6 cells per well in RPMI-1640. The cells were pre-treated with compounds at 100, 10, 1, 0.1, 0.01, and 0 µM in a final concentration of 2% DMSO in duplicate at 37°C in a humidified incubator at 5% CO2 for one hour. The cells were then stimulated with PGE2 (10µM) (Sigma) for 1h. The cells were lysed with HCl, 0.1 N final concentration to inhibit phosphodiesterase activity and the plates were frozen at -20°C. The cAMP produced was measured using cAMP (low pH) Immunoassay kit (R&D Systems).\nElevation of cAMP in human neutrophils was measured as follows. PBMC were removed from source leukocytes (Sera-Tec Biologicals) by centrifugation on Ficoll-Paque Plus (Amersham Pharmacia). […]"}, "LTB4": {"tested_on": "LTB4", "assay": "fMLF-induced LTB4 production in neutrophils", "type": "cell-based", "conditions": "Neutrophil; human neutrophils; 1 µM fMLF", "experimental": "N-formyl-methionine-leucine-phenylalanine (fMLF) is a bacterially derived peptide that activates neutrophils to rapidly degranulate, migrate, adhere to endothelial cells, and release leukotriene LTB4, a product of arachidonic acid metabolism and itself a neutrophil chemoattractant. Compounds were tested for the ability to block fMLF-induced neutrophil LTB4 production as previously described (Hatzelmann and Schudt, 2001, J. Pharm. Exp. Ther., 297:267-279), with the following modifications. Neutrophils were isolated as described above and resuspended in phosphate-buffered saline without calcium or magnesium (BioWhittaker) containing 10 mM HEPES pH 7.2 and plated in 96-well tissue culture plates at a concentration of 1.7 x 10^6 cells/well. Cells were treated with 50 µM thimerosal (Sigma)/1 mM CaCl2/1 mM MgCl2 for 15 minutes at 37°C 5% CO2, then treated with compounds at 1000, 200, 40, 8, 1.6, 0.32, 0.064, and 0 nM in a final DMSO concentration of 0.01 % in duplicate for 10 minutes. Neutrophils were stimulated with 1 µM fMLF for 30 minutes, then lysed by the addition of methanol (20% final concentration) and frozen in a dry ice/isopropanol bath for 10 minutes. Lysates were stored at -70°C until the LTB4 content was measured by competitive LTB4 ELISA (R&D Systems)."}, "TNF-α": {"tested_on": "TNF-α", "assay": "IL-1β-induced TNF-α production from human PBMC", "type": "cell-based", "conditions": "50 ng/ml recombinant human IL-1β", "experimental": "During the course of inflammatory diseases, TNF-α production is often stimulated by the cytokine 1L-1β, rather than by bacterially derived LPS. Compounds were tested for the ability to inhibit IL-1β-induced TNF-α production from human PBMC as described above for LPS-induced TNF-α production, except that the PBMC were isolated from source leukocyte units (Sera-Tec Biologicals, North Brunswick, NJ, USA) by centrifugation on Ficoll-Paque Plus (Amersham Pharmacia, Piscataway, NJ, USA), plated in 96-well tissue culture plates at 3 x 10^5 cells/well in RPMI-1640 medium (BioWhittaker, Walkersville, Maryland, USA) containing 10% heat-inactivated fetal bovine serum (Hyclone), 2 mM L-glutamine, 100 U/ml penicillin, and […] (complete medium), pretreated with compounds at 10, 2, 0.4, 0.08, 0.016, 0.0032, 0.00064, and 0 µM in duplicate at a final DMSO concentration of 0.1% at 37 °C in a humidified incubator at 5% CO2 for one hour, then stimulated with 50 ng/ml recombinant human IL-1β (Endogen) for 18 hours."}, "[1]": {"tested_on": "patients with severe plaque-type psoriasis", "type": "in vivo, human"}, "CD11b": {"tested_on": "CD11b", "assay": "fMLF-induced CD11b expression on neutrophils", "type": "cell-based", "conditions": "Neutrophil; human neutrophils; 30 nM fMLF", "experimental": "CD18/CD11b (Mac-1) expression on neutrophils was measured as previously described (Derian et al., 1995, J. Immunol., 154:308-3 17) with the following modifications. Neutrophils were isolated as described above, then resuspended in complete medium at 1x10^6 cells/ml, pretreated with compounds at 10, 1, 0.1, 0.01, and 0 µM in duplicate at a final DMSO concentration of 0.1% for 10 minutes at 37°C 5%CO2. Cells were then stimulated with 30 nM fMLF for 30 minutes and then chilled to 4°C. Cells were treated with rabbit IgG (Jackson ImmunoResearch Labs, West Grove, PA, USA) (10 µg/1x10^6 cells) to block Fc receptors, stained with CD18-FITC and CD11b-PE (Becton Dickinson), and analyzed by flow cytometry on a FACSCalibur. CD18/CD11b expression (mean fluorescence) in the absence of stimulation was subtracted from all samples to obtain inhibition curves and calculate IC50 values."}, "[2]": {"conditions": "Nonresponder, 20 mg orally daily, signed change"}},
  "data": [
    {"compound": "CCOc1cc(C(CS(C)(=O)=O)N2C(=O)c3cccc(NC(C)=O)c3C2=O)ccc1OC", "note": "(single isomer, unassigned; (+)) [Compound A, (+)-2-[1-(3-ethoxy-4-methoxyphenyl)-2-methylsulfonylethyl]-4-acetylaminoisoindoline-1,3-dione]", "values": [
      {"measurement": "PDE1 (% inhib at 10 µM)", "setting": "bovine PDE1; 10 µM", "result": 23, "unit": "%"},
      {"measurement": "PDE Specificity Ratio PDE4/PDE1", "setting": "bovine PDE1; from above data", "result": ">500", "unit": "fold"},
      {"measurement": "EC50", "setting": "cAMP", "result": 4570, "unit": "nM"},
      {"measurement": "IC50", "setting": "LTB4", "result": 2.48, "unit": "nM"},
      {"measurement": "IC50", "setting": "TNF-α", "result": 83, "unit": "nM"},
      {"measurement": "treatment-related adverse event: headache", "setting": "[1]; 20 mg orally daily for 29 days", "result": 26.3, "unit": "%"},
      {"measurement": "treatment-related adverse event: nausea", "setting": "[1]; 20 mg orally daily for 29 days", "result": 15.8, "unit": "%"},
      {"measurement": "patients demonstrating a 20% reduction in epidermal skin thickness", "setting": "[1]; 20 mg orally daily for 29 days, Day 29, 8 of the 15 patients with evaluable biopsies", "result": 53.3, "unit": "%"},
      {"measurement": "mean reduction of epidermal thickness", "setting": "[1]; 20 mg orally daily, Day 29, all 15 subjects with evaluable biopsies, p=0.015", "result": 20.5, "unit": "%"},
      {"measurement": "safety in subjects with severe plaque-type psoriasis", "setting": "[1]; 20 mg p.o. QD for 29 days", "result": "safe"},
      {"measurement": "patients demonstrating improvement in the static Physician's Global Assessment (sPGA)", "setting": "[1]; 9 of the 17 evaluable patients, 29 days of treatment", "result": 52.9, "unit": "%"},
      {"measurement": "patients showing a reduction from baseline in psoriasis body surface area (BSA)", "setting": "[1]; 10 of the 17 evaluable patients, 29 days of treatment", "result": 58.8, "unit": "%"},
      {"measurement": "patients showing a >50% reduction from baseline in total PASI score", "setting": "[1]; Day 29, 3 patients of 19 enrolled", "result": 15.8, "unit": "%"},
      {"measurement": "subjects demonstrating improvement in their PASI", "setting": "[1]; Day 29, 14 of the 19 subjects enrolled", "result": 73.7, "unit": "%"},
      {"measurement": "enrolled patients showing a reduction from baseline in psoriasis body surface area (BSA)", "setting": "[1]; Day 29, of enrolled patients", "result": 52.6, "unit": "%"},
      {"measurement": "enrolled patients showing an improvement in their sPGA", "setting": "[1]; Day 29, of enrolled patients", "result": 47.4, "unit": "%"},
      {"measurement": "Percentage Reduction of Key Inflammatory Markers at Day 29: CD11c, Dermis", "setting": "[1]; [2]", "result": -21.19, "unit": "%"},
      {"measurement": "Percentage Reduction of Key Inflammatory Markers at Day 29: CD11c, Epidermis", "setting": "[1]; [2]", "result": -2.54, "unit": "%"},
      {"measurement": "Percentage Reduction of Key Inflammatory Markers at Day 29: CD83+, Dermis", "setting": "[1]; [2]", "result": "+0.46%"},
      {"measurement": "Percentage Reduction of Key Inflammatory Markers at Day 29: CD83+, Epidermis", "setting": "[1]; [2]", "result": -16.31, "unit": "%"},
      {"measurement": "Percentage Reduction of Key Inflammatory Markers at Day 29: T-cells, Dermis", "setting": "[1]; [2]", "result": -17.34, "unit": "%"},
      {"measurement": "Percentage Reduction of Key Inflammatory Markers at Day 29: T-cells, Epidermis", "setting": "[1]; [2]", "result": "+8.74%"},
      {"measurement": "reduction of mRNA expression of iNOS", "setting": "[1]; lesional skin after 29 days of treatment, RT-PCR, p=0.025", "result": 66.5, "unit": "%"},
      {"measurement": "IC50", "setting": "CD11b", "result": 74, "unit": "nM"}
    ]}
  ]
}
